Laboratory results as given in patent US20240124520A1, “N-ACYLATED HISTIDINE DIPEPTIDES AS ANTICANCER AGENTS” (THE BOARD OF TRUSTEES OF THE LELAND STANFORD JUNIOR …, priority 2019, published 2024).
Non-standard residues stand in square brackets, D forms with d. Residues, ends and D or L forms follow the SMILES beside them. *: point of attachment. Palmitoyl = CCCCCCCCCCCCCCCC(=O)*

Experiments:
Type in all cases: cell-based
[1] = tested on: 4T1 mouse triple-negative breast cancer cells; assay: Cell Titer Blue in vitro cell viability assay, 4T1; conditions: 72 h, 4T1 (RPMI), 3 days at 37° C.
Method: (§1) FIG. 16: Dose Response curve for MBC0179 with 4T1 cells. Compound MBC0179 was incubated with 4T1 mouse triple-negative breast cancer cells at the indicated concentrations for 3 days at 37° C. prior to Cell Titer Blue fluorescence-based cell viability assay. Normalized cell viability data, expressed as a percentage, are averaged from three biological replicates and standard error represented by error bars for each averaged data point (empty squares). The compound concentrations are represented on log scale on the x-axis in μM units. Data were analyzed using free software called DrFit, as described in Nature Scientific Reports, Article number: 14701, (2015). […]
(§2) The Cell Titer Blue reagent (available from Promega, Inc.) is a buffered solution containing resazurin, a compound that is converted to resorufin, a detectable fluorescent product, by metabolically active cells. The fluorescence intensity of resorufin product therefore serves as a proportional measure of the number of viable cells, permitting changes in cell viability within cancer or other cell lines to be monitored in response to the addition of cytotoxic or cytostatic agents. […] Metastases to the lungs may be conveniently quantified by a well-established clonogenic assay. […]

[2] = tested on: hTERT-HME1 healthy human breast epithelial cells; assay: Cell Titer Blue in vitro cell viability assay, hTERT-HME1; conditions: 72 h, hTERT-HME1 (MEGM), 3 days at 37° C.
Method: as §1, with “6:” for “16:”, “hTERT-HME1 cells in MEGM Media.” for “4T1 cells.”, “[…] healthy human” for “4T1 mouse triple-negative”, “epithelial” for “cancer”, “cells in growth factor-rich MEGM media” for “cells”
as §2

[3] = tested on: ZR-75-30 human breast cancer cells; assay: Cell Titer Blue in vitro cell viability assay, ZR-75-30; conditions: 72 h, ZR-75-30 (DMEM), 3 days at 37° C.
Method: as §1, with “10:” for “16:”, “ZR-75-30” for “4T1”, “ZR-75-30 human” for “4T1 mouse triple-negative”
as §2

[4] = tested on: OVCAR-3 human ovarian cancer cells; assay: Cell Titer Blue in vitro cell viability assay, OVCAR-3; conditions: 72 h, OVCAR-3 (RPMI), 3 days at 37° C.
Method: as §1, with “14:” for “16:”, “OVCAR-3” for “4T1”, “OVCAR-3 human ovarian” for “4T1 mouse triple-negative breast”
as §2

[5] = tested on: MDA-MB-468 triple-negative human breast cancer cells; assay: Cell Titer Blue in vitro cell viability assay, MDA-MB-468; conditions: 72 h, MDA-MB-468 (DMEM), 3 days at 37° C.
Method: as §1, with “9:” for “16:”, “MDA-MB-468” for “4T1”, “MDA-MB-468” for “4T1 mouse”, “triple-negative human” for “triple-negative”
as §2

IC50 [1]: 25.5 µM | IC50 [3]: 9.7 µM | IC50 [4]: 9.22 µM | IC50 [5]: 15.7 µM
SMILES: CCCCCCCCCCCCCCCC(=O)N[C@H](Cc1c[nH]cn1)C(=O)N[C@@H](C(=O)OCC)C(C)C [Compound 5, N-[N-(1-oxohexadecyl)-D-histidyl]-D-valine ethyl ester] (Palmitoyl-[dH]-[dV]-OEt)
IC50 [2]: 270 µM
